Measured values published in US6337317B1, “Antimicrobial peptides and methods of use thereof” (priority 2000, dated 2002).
Where a SMILES comes first, the peptide text is derived from it.

Experiments:
P. aeruginosa H374 = type: cell-based, Pseudomonas aeruginosa
Method: (§1) The biological activity of the peptides can be determined by standard methods known to those of skill in the art, such as a “minimal inhibitory concentration” (MIC) assay (see Wu and Hancock (1999) J. Biol Chem. 274:29-35 and Examples section). A MIC assay allows the determination of the lowest concentration of peptide that inhibits the multiplication and growth of mircoorganisms. Changes in the microorganism population are assessed by measuring the optical density (OD) of the population in broth or medium. Peptide MIC's can be determined for a variety of micoorganisms under a variety of conditions. Another assay for the biological activity of the peptides is a “fractional inhibitory concentration” (FIC) assay. This assay is especially useful for determining synergistic effects between the peptides of the invention, and between invention peptides and other compounds such as known antibiotics. A FIC assay employs the strategy of a MIC assay with additional variable(s), e.g., known antibiotics. […] The FIC is calculated by looking at the impact of an antibiotic on the MIC of the peptide and the reciprocal relationship. […] As used herein, FIC can be determined as follows: […]
(§2) MIC Assay p The minimum inhibitory concentrations of (MIC) of several invention peptides were determined using methods described elsewhere (Wu and Hancock, (1999) J. Biol Chem. 274:29-35). […]

P. aeruginosa H744 = type: cell-based, Pseudomonas aeruginosa
Method: as §1, §2

Human Red Blood Cells = experiment: Hemolytic assay; type: cell-based
Method: The toxicity of invention peptides can be assessed using a hemolytic assay in which the ability of the peptides to lyse human red blood cells is assessed (Zhang et al. (1999) Biochemistry 38:8102-8111; and Examples section).
Hemolytic activity of invention peptides was tested against human red blood cells. Freshly collected human blood treated with heparin was centrifuged to remove the buffy coat, and the erythrocytes thereby obtained were washed three times in saline (0.85% NaCl). Serial dilutions of the peptides in saline were prepared in round-bottomed microtiter plates using total volumes of 100 μl. Red blood cells were diluted with saline to 1/25 of a packed cell volume, and 50 μl of cells were added to each well. Plates, while rocking, were incubated at 37° C., and the concentration of the peptide required for lysis after 4 h was taken as the minimal hemolytic concentration.

[1] = tested on: Salmonella typhimurium 14028s; type: cell-based
Method: (§3) The biological activity of the peptides can be determined by standard methods known to those of skill in the art, such as a “minimal inhibitory concentration” (MIC) assay (see Wu and Hancock (1999) J. Biol Chem. 274:29-35 and Examples section). A MIC assay allows the determination of the lowest concentration of peptide that inhibits the multiplication and growth of mircoorganisms. Changes in the microorganism population are assessed by measuring the optical density (OD) of the population in broth or medium. Peptide MIC's can be determined for a variety of micoorganisms under a variety of conditions. Another assay for the biological activity of the peptides is a “fractional inhibitory concentration” (FIC) assay. This assay is especially useful for determining synergistic effects between the peptides of the invention, and between invention peptides and other compounds such as known antibiotics. A FIC assay employs the strategy of a MIC assay with additional variable(s), e.g., known antibiotics. One type of FIC assay is performed in a microwell plate containing microorganisms in broth. Peptides, in a range of dilutions, is added to each well following a patter of one dimension of the microwell plate, and antibiotics, in the other dimension. The FIC is calculated by looking at the impact of an antibiotic on the MIC of the peptide and the reciprocal relationship. […] Preferably, an FIC of less than 0.5 is obtained for synergism. As used herein, FIC can be determined as follows:
(§4) The bacterial strains used for antimicrobial activity assays included E. coli UB1005 (F^−, nalA37, metB1) and its outer membrane deficient mutant DC2 (16), E. coli KF130 (gyrA) (Hooper et al. (1987) Am. J. Med. 82:(Suppl. 4A),12-20), wild tppe strains of S. typhimurium 14028s (Fields et al. (1989) Science 243:1059-1062), S. aureus ATCC25923, S. aureus SAP0017 and R147. Also included was a clinical isolate of S. epidermidis were obtained from Dr. D. Speert, Department of Medicine, University of British Columbia, and P. aeruginosa PAO1 (Hancock and Carey (1979) J. Bacteriol. 140:902-910), H374 and H744 (Poole et al. (1993) J. Bacterial.175:7363-7372.) and E. faecalis ATCC 29212. Antifungal activity was tested using a clinical lab isolate of Candida albicans. All the strains were grown in Mueller Hinton (MH) broth (Difco Laboratories, Detroit, Mich.) at 37° C. unless otherwise indicated. The lipopolysaccharides (LPS) of E. coli UB1005 and P. aeruginosa H103 used for the dansyl-polymyxin B replacement assay were isolated as described by Moore et al. ((1986) Antimicrobial. Agents Chemother. 29:496-500). Polymyxin B, 1-N-phenylnapthylamine (NPN), carbonyl cyanide-m-chlorophenyl hydrazone (CCCP), Re LPS from S. Minnesota R595 (Re mutant) and LPS from E. coli 0111 :B4 were purchased from Sigma Chemicals Co. (St. Louis, Mo.). Dansyl polymyxin B was synthesized as described previously (Moore et al. (1986) Antimicrobial. Agents Chemother. 29:496-500). The lipids 1-pamitoyl-2-oleoyl-sn-glycero-3-phosphocholine (POPC), 1-palmitoyl-2-oleoyl-sn-glycero-3-phosphoglycerol (POPG), 1-palmitoyl-2-oleoyl-sn-glycero-3-phosphoethanolamine (POPE) and phosphatidylglycerol from egg yolk (egg-PG) were purchased from Avanti Polar Lipids Inc. (Alabaster, Ala.). The fluorescent dye 3,3-dipropylthiacarbocyanine (diSC35) was purchased from Molecular Probes (Eugene, Oreg.).
(§5) MIC Assay p The minimum inhibitory concentrations of (MIC) of several invention peptides were determined using methods described elsewhere (Wu and Hancock, (1999) J. Biol Chem. 274:29-35). Cells were grown overnight at 37EC in LB-S (Luria broth without any salt supplement) and diluted one in 10,000 in the same medium to give concentrations of about 10^4 to 10^5 CFU/ml. The broth dilutions were set up in a 96-well microtiter plate by putting 200 μl of LB-S containing the initial concentration of antibiotic or compound in column 1 and 100 Φl of the same medium in columns 2-12. […]

Candida albicans = type: cell-based; conditions: Candida albicans clinical lab isolate
Method: as §3, §4, §5

[2] = tested on: Pseudomonas aeruginosa PAO1; type: cell-based
Method: as §3, §4, §5

[3] = tested on: Staphylococcus aureus ATCC 25923; type: cell-based
Method: as §3, §4, §5

[4] = tested on: Staphylococcus epidermidis; type: cell-based; conditions: Staphylococcus epidermidis clinical isolate
Method: as §3, §4, §5

Escherichia coli UB1005 = type: cell-based
Method: as §3, §4, §5

Enterococcus facaelis = type: cell-based
Method: as §3, §4, §5

S. aureus SAP0017 = type: cell-based, Staphylococcus aureus
Method: as §1, §2

S. aureus R147 = type: cell-based, Staphylococcus aureus
Method: as §1, §2

With `CC(C)[C@@H]1NC(=O)[C@H](CCCNC(=N)N)NC(=O)[C@H](Cc2ccccc2)NC(=O)[C@@H](NC(=O)[C@H](Cc2c[nH]c3ccccc23)NC(=O)[C@H](CCCNC(=N)N)NC(=O)[C@@H](N)CCCNC(=N)N)CSSC[C@@H](C(=O)N[C@@H](CCCNC(=N)N)C(N)=O)NC(=O)[C@H](CCCCN)NC(=O)[C@H](CCCNC(=N)N)NC(=O)[C@H](Cc2ccc(O)cc2)NC(=O)[C@@H]2CSSC[C@H](NC1=O)C(=O)N[C@@H](Cc1ccc(O)cc1)C(=O)N[C@@H](CCCNC(=N)N)C(=O)NCC(=O)N[C@@H](Cc1ccccc1)C(=O)N2` [Polyphemusin I] (HELM PEPTIDE1{R.R.W.C.F.R.V.C.Y.R.G.F.C.Y.R.K.C.R.[am]}$PEPTIDE1,PEPTIDE1,4:R3-17:R3|PEPTIDE1,PEPTIDE1,8:R3-13:R3$$$V2.0; N-terminus and C-terminus assumed) the MIC (P. aeruginosa H374) was 0.25 µg/mL, the MIC (P. aeruginosa H744) was 0.25 µg/mL and the “minimal hemolytic concentration (printed under MIC head)” value (Human Red Blood Cells; Human Red Blood Cells, lysis after 4 h at 37° C.) was 21.3 µg/mL. For the same compound, the “hemolytic activity” value (Human Red Blood Cells; red blood cells) was “show hemolytic activity”, the MIC [1] was 0.25 µg/mL and the MIC (Candida albicans) was 1 µg/mL. It also gave an MIC [2] of 0.25 µg/mL, an MIC [3] of 0.5 µg/mL and an MIC [4] of 0.25 µg/mL. It also gave an MIC (Escherichia coli UB1005) of 0.125 µg/mL, an MIC (Enterococcus facaelis) of 0.25 µg/mL and an MIC (S. aureus SAP0017) of 0.5 µg/mL. For the same compound, the MIC (S. aureus R147) was 0.5 µg/mL.
